Test results reported in ChEMBL document CHEMBL4024702, “Covalent Modifiers: A Chemical Perspective on the Reactivity of α,β-Unsaturated Carbonyls with Thiols via Hetero-Michael Addition Reactions” (J Med Chem, 2017).
Non-standard residues stand in square brackets, D forms with d. Residues, ends and D or L forms follow the SMILES beside them. *: point of attachment. Cbz = O=C(OCc1ccccc1)*; Dap = NC[C@H](N)C(=O)O

Experiments:
Tetrahymena pyriformis = assay: Toxicity in Tetrahymena pyriformis assessed as growth inhibition after 48 hrs
[1] = Glutathione reactivity of the compound in DMSO and phosphate buffer assessed as second order rate constant for adduct formation
[2] = Thiol reactivity of the compound assessed as equilibrium constant for adduct formation
[3] = Inhibition of wild-type HCV genotype 1b protease using 5-FAM/QXL 520 as substrate after 60 to 90 mins by FRET-based assay; parameters: species or system Hepatitis C virus subtype 1b
[4] = Cytotoxicity against human MRC5 cells; type: cell-based
[5] = Half life in dog plasma; type: ADME, cell-free, Canis lupus familiaris
[6] = Half life in human plasma; type: ADME, cell-free
[7] = Half life in rat plasma; type: ADME, cell-free
Enterovirus = assay: Antiviral activity against rhinovirus infected in human H1HeLa cells; type: functional; conditions: H1-HeLa
rhinovirus B14 [8] = assay: Irreversible inhibition of human rhinovirus serotype 14 3C protease assessed as ratio of Kobs/I
[9] = Binding affinity to human rhinovirus serotype 14 3C protease; parameters: species or system rhinovirus B14
[10] = target: Sodium-dependent dopamine transporter (Rattus norvegicus, UniProt P23977); assay: Inhibition of [3H]dopamine uptake at DAT in rat brain striatal synaptosomes by liquid scintillation counting analysis; type: subcellular, Striatum
[11] = target: Proto-oncogene tyrosine-protein kinase Src (Gallus gallus, UniProt P00523, S345C); assay: Inhibition of chicken c-Src S345C mutant (251 to 533 residues) expressed in Escherichia coli by fluorescence assay
[12] = tested on: Proto-oncogene tyrosine-protein kinase Src (Gallus gallus), P00523 [S345C]; assay: Ratio of Kinact to Ki for chicken c-Src S345C mutant (251 to 533 residues) expressed in Escherichia coli
Exportin-1 = Exportin-1 (Homo sapiens, UniProt O14980); assay: Inhibition of CRM1-mediated nucleocytoplasmic transport in human HeLa cells after 90 mins by immunofluorescence assay; type: cell-based
[13] = Glutathione reactivity of the compound assessed as adduct formation after 2 mins by mass spectrometric analysis
[14] = Cysteine reactivity of the compound assessed as adduct formation after 2 mins by mass spectrometric analysis
[15] = Inhibition of PI3K (unknown origin); parameters: species or system Homo sapiens
[16] = target: T1, Calpain-1 catalytic subunit (Homo sapiens, UniProt P07384); assay: Inhibition of human calpain 1 protease using Ac-LLY-AFC as substrate after 1 hr by fluorescence assay
T1 sequence (P07384 whole entry): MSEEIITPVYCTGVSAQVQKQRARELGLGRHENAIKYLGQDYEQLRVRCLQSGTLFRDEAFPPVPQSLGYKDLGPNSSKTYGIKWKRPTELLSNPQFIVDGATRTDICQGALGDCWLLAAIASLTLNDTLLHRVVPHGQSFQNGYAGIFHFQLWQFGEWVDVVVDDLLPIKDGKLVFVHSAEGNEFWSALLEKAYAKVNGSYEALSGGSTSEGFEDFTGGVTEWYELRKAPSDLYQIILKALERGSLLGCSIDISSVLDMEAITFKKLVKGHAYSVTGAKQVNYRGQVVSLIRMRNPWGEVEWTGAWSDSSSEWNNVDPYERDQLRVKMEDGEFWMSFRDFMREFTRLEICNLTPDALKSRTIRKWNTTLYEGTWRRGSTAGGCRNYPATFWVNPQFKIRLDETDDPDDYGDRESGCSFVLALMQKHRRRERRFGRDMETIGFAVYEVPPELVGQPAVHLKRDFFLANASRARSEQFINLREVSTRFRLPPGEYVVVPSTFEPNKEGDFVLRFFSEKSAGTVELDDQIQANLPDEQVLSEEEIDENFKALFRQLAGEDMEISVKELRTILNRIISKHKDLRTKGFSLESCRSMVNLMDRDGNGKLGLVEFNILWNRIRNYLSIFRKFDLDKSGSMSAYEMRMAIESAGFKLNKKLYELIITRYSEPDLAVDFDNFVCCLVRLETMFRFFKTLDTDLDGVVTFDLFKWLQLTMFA

[17] = Butanethiol reactivity of the compound in CD3OD/deuterio phosphate buffer assessed as equilibrium constant for adduct formation at pH 7.4 by […] analysis
[18] = Beta-mercaptoethanol reactivity of the compound in CD3OD/deuterio phosphate buffer assessed as equilibrium constant for adduct formation at pH 7.4 by […] analysis
[19] = Glutathione reactivity of the compound in CD3OD/deuterio phosphate buffer assessed as equilibrium constant for adduct formation at pH 7.4 by […] analysis
[20] = Methanethiol reactivity of the compound in CD3OD/deuterio phosphate buffer assessed as equilibrium constant for adduct formation at pH 7.4 by […] analysis
[21] = Cysteine reactivity of the compound in CD3OD/deuterio phosphate buffer assessed as equilibrium constant for adduct formation at pH 7.4 by […] analysis
[22] = target: Adenosylhomocysteinase (Homo sapiens) (UniProt P23526); assay: Ratio of Kinact to Ki for S-adenosyl-L-homocysteine hydrolase (unknown origin)
[23] = target: Adenosylhomocysteinase (Homo sapiens) (UniProt P23526); assay: Inhibition of S-adenosyl-L-homocysteine hydrolase (unknown origin)
[24] = Glutathione reactivity of the compound assessed as second order rate constant by 1H NMR analysis
[25] = Cysteine reactivity of the compound assessed as second order rate constant by 1H NMR analysis
[26] = Lysine reactivity of the compound in aqueous buffer assessed as drug recovery after 6 days at pH 7.4
[27] = Reversible inhibition of human rhinovirus serotype 14 3C protease by fluorescence resonance energy transfer assay; parameters: species or system rhinovirus B14
[28] = Cytotoxicity against human H1HeLa cells after 2 days by XTT/PMS dye based assay; type: cell-based, H1-HeLa
rhinovirus B14 [29] = assay: Antiviral activity against rhinovirus serotype 14 infected in human H1HeLa cells after 2 days by XTT/PMS dye based assay; type: functional, cell-based; conditions: Rhinovirus B, H1-HeLa, 48 h

Sequence of Sodium-dependent dopamine transporter (P23977 whole entry, the tested form may be a part): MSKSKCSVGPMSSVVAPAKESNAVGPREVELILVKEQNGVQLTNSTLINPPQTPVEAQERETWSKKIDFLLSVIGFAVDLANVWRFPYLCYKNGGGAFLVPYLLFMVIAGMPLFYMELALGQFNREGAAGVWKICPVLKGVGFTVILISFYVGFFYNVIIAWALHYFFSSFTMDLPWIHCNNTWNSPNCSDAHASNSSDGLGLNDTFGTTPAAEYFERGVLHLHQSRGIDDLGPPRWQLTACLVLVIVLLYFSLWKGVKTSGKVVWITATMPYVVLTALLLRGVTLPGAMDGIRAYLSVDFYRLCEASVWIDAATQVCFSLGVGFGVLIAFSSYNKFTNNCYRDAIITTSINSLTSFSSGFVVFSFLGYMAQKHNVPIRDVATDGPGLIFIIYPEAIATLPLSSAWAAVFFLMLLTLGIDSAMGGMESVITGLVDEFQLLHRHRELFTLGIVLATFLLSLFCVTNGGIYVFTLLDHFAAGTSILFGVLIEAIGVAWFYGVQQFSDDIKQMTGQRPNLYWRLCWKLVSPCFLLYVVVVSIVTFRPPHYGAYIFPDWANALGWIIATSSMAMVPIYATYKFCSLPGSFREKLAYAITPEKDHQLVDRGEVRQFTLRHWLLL
Sequence of Exportin-1 (O14980 whole entry): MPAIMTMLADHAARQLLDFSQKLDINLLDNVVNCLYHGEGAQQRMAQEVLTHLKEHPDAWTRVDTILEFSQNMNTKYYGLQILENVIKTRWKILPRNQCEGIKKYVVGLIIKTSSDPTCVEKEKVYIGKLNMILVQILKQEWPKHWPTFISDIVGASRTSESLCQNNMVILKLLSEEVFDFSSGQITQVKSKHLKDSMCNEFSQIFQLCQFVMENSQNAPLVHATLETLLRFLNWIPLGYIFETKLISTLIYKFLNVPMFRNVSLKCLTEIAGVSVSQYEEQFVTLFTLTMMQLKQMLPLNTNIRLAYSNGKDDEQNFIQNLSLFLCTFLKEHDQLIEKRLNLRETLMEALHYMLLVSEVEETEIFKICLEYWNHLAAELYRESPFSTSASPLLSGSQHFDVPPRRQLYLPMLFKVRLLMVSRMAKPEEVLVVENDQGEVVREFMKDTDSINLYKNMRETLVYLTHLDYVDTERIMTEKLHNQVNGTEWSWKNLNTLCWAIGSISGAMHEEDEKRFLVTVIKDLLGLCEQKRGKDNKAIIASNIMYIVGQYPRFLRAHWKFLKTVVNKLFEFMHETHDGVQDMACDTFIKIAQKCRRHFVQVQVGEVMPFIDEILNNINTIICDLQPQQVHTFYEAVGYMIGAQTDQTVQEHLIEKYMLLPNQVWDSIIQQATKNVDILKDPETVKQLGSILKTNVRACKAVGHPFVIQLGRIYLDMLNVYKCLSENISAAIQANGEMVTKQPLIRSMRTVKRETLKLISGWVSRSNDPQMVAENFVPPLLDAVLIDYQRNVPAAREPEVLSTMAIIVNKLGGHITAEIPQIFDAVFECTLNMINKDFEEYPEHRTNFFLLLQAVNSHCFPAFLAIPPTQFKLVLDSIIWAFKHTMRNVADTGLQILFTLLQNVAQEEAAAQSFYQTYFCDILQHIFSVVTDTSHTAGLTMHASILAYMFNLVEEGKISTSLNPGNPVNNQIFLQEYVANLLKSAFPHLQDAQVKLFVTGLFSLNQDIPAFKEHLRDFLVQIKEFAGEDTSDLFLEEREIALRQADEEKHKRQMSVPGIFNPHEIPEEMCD
Sequence of Adenosylhomocysteinase (Homo sapiens) (P23526 2-432 limits assumed): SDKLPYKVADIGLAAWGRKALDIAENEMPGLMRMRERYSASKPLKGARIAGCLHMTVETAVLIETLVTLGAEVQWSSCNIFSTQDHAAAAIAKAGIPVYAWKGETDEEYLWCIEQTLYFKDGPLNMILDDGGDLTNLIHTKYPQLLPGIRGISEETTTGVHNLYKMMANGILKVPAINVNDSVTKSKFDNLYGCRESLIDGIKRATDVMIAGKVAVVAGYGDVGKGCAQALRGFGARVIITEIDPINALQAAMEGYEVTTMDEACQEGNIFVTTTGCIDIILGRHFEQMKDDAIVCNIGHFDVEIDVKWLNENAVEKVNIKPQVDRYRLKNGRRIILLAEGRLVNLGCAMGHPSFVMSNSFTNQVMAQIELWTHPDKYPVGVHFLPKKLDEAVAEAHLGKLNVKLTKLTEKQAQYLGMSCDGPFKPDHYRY

## CC1=CC(=O)CC1
Tetrahymena pyriformis
  EC50: 20900 µM
[1]
  K: 0.074 M⁻¹ s⁻¹
[2]
  Ke: 0.88 M⁻¹

## C=CC(=O)N[C@H](C)C(=O)N1C[C@H](Oc2nccc3ccc(Br)cc23)C[C@H]1C(=O)N[C@]1(C(=O)CS(=O)(=O)C2CC2)C[C@H]1C=C
[3]
  IC50: 0.004 µM

## CCOC(=O)/C=C/C(C[C@@H]1CCNC1=O)NC(=O)[C@@H](CC(=O)[C@@H](NC(=O)c1cc(C)on1)C(C)C)Cc1ccc(F)cc1 (some centres not stated)
[4]
  CC50: > 100 µM
[5]
  half-life: > 1 h
[6]
  half-life: > 1 h
[7]
  half-life: < 2 min
Enterovirus
  EC90: 0.018 to 0.261 µM
Rhinovirus B14 [8]
  Ratio: 1.47 ×10⁶ /M/s

## CC(=O)NC[C@@H](C=O)NC(=O)[C@H](Cc1ccccc1)NC(=O)[C@H](CC(C)C)NC(=O)OCc1ccccc1 (Cbz-Leu-Phe-[Dap](Ac)-aldehyde)
[9]
  Ki: 0.006 µM

## CC1C(=O)CCC1Sc1ccccc1 (configuration not stated)
[2]
  Ke: 1.28 M⁻¹

## C=CC(C)=O
[10]
  IC50: 331 µM

## CN(C)C/C=C/C(=O)Nc1ccc2ncnc(Nc3cccc(Br)c3)c2c1
[11]
  IC50: 0.24 µM
[12]
  Ratio: 0.085 M⁻¹ s⁻¹

## C/C=C(\C)C[C@H](C)[C@@H](O)[C@H](C)C(=O)[C@H](C)/C=C(C)/C=C/C[C@@H](C)/C=C(\C=C\[C@H]1CC=CC(=O)O1)CC
Exportin-1
  IC50: 0.01 µM

## C=CS(=O)(=O)Nc1ccc2ncnc(Nc3cccc(Br)c3)c2c1
[11]
  IC50: 0.002 µM
[12]
  Ratio: 1.03 M⁻¹ s⁻¹

## CCCCC[C@@H](O)C/C=C1/C(=O)C=C[C@@H]1C/C=C\CCCC(=O)O
[13]
  Drug metabolism: 70%
[14]
  Drug metabolism: 85%

## COC[C@H]1OC(=O)c2coc3c2[C@@]1(C)C1=C(C3=O)[C@@H]2CCC(=O)[C@@]2(C)C[C@H]1OC(C)=O [WORTMANNIN]
[15]
  IC50: 0.0008 µM

## CCCCCC/C=C\CC(=O)N[C@@H](CO)C(=O)N[C@H](C(=O)N[C@@H](CO)[C@@H](O)CC(=O)N[C@H](C(=O)N[C@@H]1/C=C/C(=O)N[C@@H](C(C)C)C(=O)N(C)[C@@H](Cc2ccc(O)cc2)C(=O)OC1)C(C)C)C(C)C
[16]
  IC50: 0.003 to 0.079 µM

## CO[C@H]1OC(=O)/C(=C\N(C2CC2)C2CC2)C2=C(O)C(=O)C3=C([C@H](OC(C)=O)C[C@]4(C)C(=O)CC[C@@H]34)[C@]21C
[15]
  IC50: 0.0003 µM

## C=C[C@@H]1C[C@]1(NC(=O)[C@@H]1C[C@@H](Oc2nccc3ccc(Br)cc23)CN1C(=O)[C@@H](C)NC(=O)CC)C(=O)CS(=O)(=O)C1CC1
[3]
  IC50: 1.15 µM

## CCCCC[C@H](O)/C=C/[C@H]1C=CC(=O)/C1=C/CCCCCC(=O)OC
[17]
  Ke: 0.35 to 1.6 M⁻¹
[18]
  Ke: 0.35 to 1.6 M⁻¹
[19]
  Ke: 0.35 to 1.6 M⁻¹
[20]
  Ke: 0.35 to 1.6 M⁻¹
[21]
  Ke: 0.35 to 1.6 M⁻¹

## C=CC=O [ACROLEIN]
[10]
  IC50: 52.5 µM

## CCC(=C/[C@H](C)C/C=C/C(C)=C/[C@@H](C)C(=O)[C@@H](C)[C@H](O)[C@@H](C)C/C(C)=C/C(=O)O)/C=C/[C@@H]1OC(=O)C=C[C@@H]1C [LEPTOMYCIN B]
Exportin-1
  IC50: 0.001 µM

## O=C1C=CCC1
[1]
  K: 25.6 M⁻¹ s⁻¹
[2]
  Ke: 3900 M⁻¹

## COC1=C(OC)/C(=C/Cn2cnc3c(N)ncnc32)OC1=O
[22]
  Ratio: 152 M⁻¹ s⁻¹
[23]
  K: 84.9 M⁻¹ s⁻¹

## C=C1CCOC1=O
[24]
  K: 1.3 ×10⁻⁴ /M/s

## CCCCC[C@@H](O)C/C=C1/C(=O)C[C@H](O)[C@@H]1C/C=C\CCCC(=O)O
[14]
  Drug metabolism: 60%

## C=CC(=O)NCC(=O)N1C[C@H](Oc2nccc3ccc(Br)cc23)C[C@H]1C(=O)N[C@]1(C(=O)CS(=O)(=O)C2CC2)C[C@H]1C=C
[3]
  IC50: 0.002 µM

## C=C[C@@]12COC(=O)C(=C)[C@@H]1[C@H]1OC(=O)C(=C)[C@@H]1[C@@H](O)C2
[25]
  K: 200 M⁻¹ s⁻¹
[26]
  Drug recovery: 75%

## CO[C@H]1OC(=O)/C(=C\Sc2ccccc2)C2=C(O)C(=O)C3=C([C@H](OC(C)=O)C[C@]4(C)C(=O)CC[C@@H]34)[C@]21C
[15]
  IC50: 0.0005 µM

## CO[C@H]1OC(=O)/C(=C\SC(C)C)C2=C(O)C(=O)C3=C([C@H](OC(C)=O)C[C@]4(C)C(=O)CC[C@@H]34)[C@]21C
[15]
  IC50: 0.0001 µM

## CCN1C(=O)C=CC1=O [N-ETHYLMALEIMIDE]
[25]
  K: 3750 M⁻¹ s⁻¹
[10]
  IC50: 46.8 µM

## CCC(=C/C(C)C)/C=C/[C@@H]1OC(=O)C=C[C@@H]1C
Exportin-1
  IC50: 0.025 µM

## CCCCC[C@H](O)/C=C/[C@H]1C=CC(=O)[C@@H]1CCCCCCC(=O)OC
[17]
  Ke: 6.1 to 10.8 M⁻¹
[18]
  Ke: 6.1 to 10.8 M⁻¹
[19]
  Ke: 6.1 to 10.8 M⁻¹
[20]
  Ke: 6.1 to 10.8 M⁻¹
[21]
  Ke: 6.1 to 10.8 M⁻¹

## C=C1C(=O)O[C@H]2[C@H]1[C@H](OC(=O)/C(C)=C\C)CC(=C)[C@@H]1[C@H](O)[C@H]3O[C@@]3(C)[C@@]12O
[25]
  K: 42 M⁻¹ s⁻¹
[26]
  Drug recovery: 75%

## CC(C)C[C@H](NC(=O)OCc1ccccc1)C(=O)N[C@@H](Cc1ccccc1)C(=O)N[C@H](/C=C1\CCCOC1=O)CCC(N)=O
[27]
  Ki: 0.03 µM
[28]
  CC50 at 48 h: > 100 µM
Rhinovirus B14 [29]
  EC50: 16 µM

## C=C(C)C(=O)O[C@H]1CC2=C[C@@H](C[C@@]3(C)O[C@H]3[C@H]3OC(=O)C(=C)[C@@H]31)OC2=O
[25]
  K: 20 M⁻¹ s⁻¹
[26]
  Drug recovery: 75%
